Results taken from US20250215039A1, “NUCLEOSIDES FOR TREATING CANCER” (PRIMEFOUR THERAPEUTICS, INC., priority 2022, published 2025).
Like-named read-outs stand apart in the source and are kept apart here.

Tested on: cancer cell lines
Assay: Cancer cell proliferation activity (CellTiterGlo, 72 h)
Type: cell-based
Conditions: 72 h, 72 h, read-out: IC50
In short: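 Cells seeded overnight at 37 °C, then dosed with compound at 0.1% final DMSO and incubated 72 h at 37 °C (5% or 10% CO2 by medium).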

CC(C)C[C@]1(CO)O[C@@H](n2cnc3c(N)nc(F)nc32)C[C@@H]1O [Cpd. No. 133, (2R,3S,5R)-5-(6-amino-2-fluoro-9H-purin-9-yl)-2-(hydroxymethyl)-2-isobutyltetrahydrofuran-3-ol] gave an IC50 (5637 cell line (bladder)) of 4.09 µM, an IC50 (CLS439 cell line (bladder)) greater than 50 µM and an IC50 (HS729 cell line (muscle)) of 8.57 µM. It also gave an IC50 (HSS78T cell line) of 3.71 µM, an IC50 (JAR cell line (placenta)) of 3.66 µM and an IC50 (SKMELS cell line) of 4.92 µM. For the same compound, the IC50 (Homo sapiens, 22Rv1, 72 h, 22RV1 cell line (prostate)) was greater than 50 µM, the IC50 (Homo sapiens, 786-0, 72 h, 786O cell line (kidney)) was 2.59 µM and the IC50 (Homo sapiens, A204, 72 h, A204 cell line (muscle)) was 4.91 µM. It also gave an IC50 (Homo sapiens, A549, 72 h, A549 cell line) of 4.96 µM, an IC50 (Homo sapiens, A673, 72 h, A673 cell line (bone)) greater than 50 µM and an IC50 (Homo sapiens, A2780, 72 h, A2780 cell line (ovary)) of 4.54 µM. It also gave an IC50 (Homo sapiens, A-375, 72 h, A375 cell line (skin)) of 3.67 µM, an IC50 (Homo sapiens, A-431, 72 h, A431 cell line (skin)) of 2.29 µM and an IC50 (Homo sapiens, ACHN, ACHN cell line (kidney)) greater than 50 µM. The IC50 (Homo sapiens, ASPC1, 72 h, ASPC1 cell line (pancreas)) was 2.99 µM, the IC50 (Homo sapiens, BT-20, 72 h, BT20 cell line (breast)) was 4.14 µM and the IC50 (Homo sapiens, BXPC-3, 72 h, BXPC3 cell line (pancreas)) was 7.13 µM. It also gave an IC50 (Homo sapiens, C-33-A, C33A cell line (cervical)) of 4.28 µM, an IC50 (Homo sapiens, CAKI-1, 72 h, CAKI1 cell line (kidney)) of 0.41 µM and an IC50 (Homo sapiens, COLO 205, 72 h, COLO205 cell line (colon)) of 5.86 µM. It also gave an IC50 (Homo sapiens, COLO-678, 72 h, COLO678 cell line (colon)) of 9.54 µM, an IC50 (Homo sapiens, Ca-Ski, CASKI cell line (cervical)) of 2.33 µM and an IC50 (Homo sapiens, Caco-2, 72 h, CACO2 cell line (colon)) of 5.32 µM. The IC50 (Homo sapiens, Calu-6, 72 h, CALU6 cell line (lung)) was 3.07 µM, the IC50 (Homo sapiens, DLD-1, 72 h, DLD1 cell line (colon)) was greater than 50 µM and the IC50 (Homo sapiens, DU-145, 72 h, DU145 cell line (prostate)) was 3.3 µM. It also gave an IC50 (Homo sapiens, EFO-21, 72 h, EFO21 cell line (ovary)) of 3.75 µM, an IC50 (Homo sapiens, EJ-28, 72 h, EJ28 cell line (bladder)) of 5.11 µM and an IC50 (Homo sapiens, Granta-519, 72 h, GRANTA-519 cell line (hematological)) greater than 50 µM. It also gave an IC50 (Homo sapiens, HCT-15, 72 h, HCT15 cell line (colon)) greater than 50 µM, an IC50 (Homo sapiens, HCT-116, 72 h, HCT116 cell line (colon)) of 3.96 µM and an IC50 (Homo sapiens, HEK293, 72 h, HEK293 cell line (kidney)) of 5.3 µM. For the same compound, the IC50 (Homo sapiens, HL-60, 72 h, HL-60 cell line (hematological)) was 5.42 µM, the IC50 (Homo sapiens, HT-29, 72 h, HT29 cell line (colon)) was 2.16 µM and the IC50 (Homo sapiens, HT-1080, 72 h, HT1080 cell line (connective tissue)) was greater than 50 µM. The IC50 (Homo sapiens, HeLa, HELA cell line (cervical)) was 2.73 µM, the IC50 (Homo sapiens, HepG2, 72 h, HEPG2 cell line (liver)) was 3.32 µM and the IC50 (Homo sapiens, IGROV-1, 72 h, IGROV1 cell line (ovary)) was 2.72 µM. For the same compound, the IC50 (Homo sapiens, IMR-90, 72 h, IMR.90 cell line) was 2.76 µM, the IC50 (Homo sapiens, J82, 72 h, J82 cell line (bladder)) was 3.18 µM and the IC50 (Homo sapiens, JEG-3, 72 h, JEG3 cell line (placenta)) was 3.36 µM. It also gave an IC50 (Homo sapiens, JIMT-1, 72 h, JIMT1 cell line (breast)) of 1.43 µM, an IC50 (Homo sapiens, K562, 72 h, K-562 cell line (hematological)) greater than 50 µM and an IC50 (Homo sapiens, Kasumi 1, 72 h, KASUMI-1 cell line (hematological)) of 1.54 µM. For the same compound, the IC50 (Homo sapiens, L-363, 72 h, L-363 cell line (hematological)) was 3.16 µM, the IC50 (Homo sapiens, LoVo, LOVO cell line (colon)) was 3.61 µM and the IC50 (Homo sapiens, MCF7, 72 h, MCF7 cell line (breast)) was greater than 50 µM. It also gave an IC50 (Homo sapiens, MDA-MB-231, 72 h, MDAMB231 cell line (breast)) greater than 50 µM, an IC50 (Homo sapiens, MDA-MB-435, 72 h, MDAMB435 cell line (skin)) greater than 50 µM and an IC50 (Homo sapiens, MDA-MB-436, 72 h, MDAMB436 cell line (breast)) of 3.36 µM. For the same compound, the IC50 (Homo sapiens, MDA-MB-468, 72 h, MDAMB468 cell line (breast)) was 2.58 µM, the IC50 (Homo sapiens, MG-63, 72 h, MG63 cell line (bone)) was greater than 50 µM and the IC50 (Homo sapiens, MHH-ES-1, 72 h, MHHES1 cell line (bone)) was 3.07 µM. For the same compound, the IC50 (Homo sapiens, MIA PaCa-2, 72 h, MIAPACA2 cell line (pancreas)) was greater than 50 µM, the IC50 (Homo sapiens, MINO, MINO cell line (hematological)) was 2.52 µM and the IC50 (Homo sapiens, MV4-11, 72 h, MV4-11 cell line (hematological)) was 3.35 µM. It also gave an IC50 (Homo sapiens, NCI-H23, 72 h, NCI-H23 cell line (lung)) of 3.33 µM, an IC50 (Homo sapiens, NCI-H82, 72 h, NCIH82 cell line (lung)) of 3.4 µM and an IC50 (Homo sapiens, NCI-H292, 72 h, NCIH292 cell line (lung)) greater than 50 µM. The IC50 (Homo sapiens, NCI-H460, 72 h, NCIH460 cell line (lung)) was 5.43 µM, the IC50 (Homo sapiens, OVCAR-3, 72 h, OVCAR3 cell line (ovary)) was 1.92 µM and the IC50 (Homo sapiens, OVCAR-4, 72 h, OVCAR4 cell line (ovary)) was 4.25 µM. It also gave an IC50 (Homo sapiens, PANC-1, 72 h, PANC1 cell line (pancreas)) greater than 50 µM, an IC50 (Homo sapiens, PC-3, 72 h, PC3 cell line (prostate)) of 3.83 µM and an IC50 (Homo sapiens, PLC-PRF-5, 72 h, PLCPRF5 cell line (liver)) greater than 50 µM. The IC50 (Homo sapiens, Panc1005, 72 h, PANC1005 cell line (pancreas)) was 2.98 µM, the IC50 (Homo sapiens, RD, RD cell line (muscle)) was 4.61 µM and the IC50 (Homo sapiens, Ramos, RAMOS cell line (hematological)) was 3.68 µM. For the same compound, the IC50 (Homo sapiens, SAOS-2, 72 h, SAOS2 cell line (bone)) was 4.32 µM, the IC50 (Homo sapiens, SF-268, 72 h, SF268 cell line (brain)) was greater than 50 µM and the IC50 (Homo sapiens, SF-295, 72 h, SF295 cell line (brain)) was greater than 50 µM. The IC50 (Homo sapiens, SK-BR-3, 72 h, SKBR3 cell line (breast)) was 1.09 µM, the IC50 (Homo sapiens, SK-HEP1, 72 h, SKHEP1 cell line (liver)) was 5.13 µM and the IC50 (Homo sapiens, SK-LMS-1, 72 h, SKLMS1 cell line (uterus)) was 4.34 µM. It also gave an IC50 (Homo sapiens, SK-MEL-28, 72 h, SKMEL28 cell line (skin)) of 3.69 µM, an IC50 (Homo sapiens, SK-N-AS, SKNAS cell line (brain)) of 2.78 µM and an IC50 (Homo sapiens, SK-N-SH, SKNSH cell line (brain)) of 2.65 µM. For the same compound, the IC50 (Homo sapiens, SK-OV-3, 72 h, SKOV3 cell line (ovary)) was 3.01 µM, the IC50 (Homo sapiens, SNB-75, 72 h, SNB75 cell line (brain)) was 9.06 µM and the IC50 (Homo sapiens, SU-DHL10, 72 h, SU-DHL-10 cell line (hematological)) was 4.84 µM. For the same compound, the IC50 (Homo sapiens, SU-DHL-6, 72 h, SU-DHL-6 cell line (hematological)) was 3.29 µM, the IC50 (Homo sapiens, SW-620, 72 h, SW620 cell line (colon)) was 3.44 µM and the IC50 (Homo sapiens, T-24, 72 h, T24 cell line (bladder)) was 3.9 µM. It also gave an IC50 (Homo sapiens, TE-671, 72 h, TE671 cell line (muscle)) greater than 50 µM, an IC50 (Homo sapiens, THP-1, 72 h, THP-1 cell line (hematological)) greater than 50 µM and an IC50 (Homo sapiens, U2OS, U2OS cell line (bone)) of 2.64 µM. It also gave an IC50 (Homo sapiens, U-87 MG, U87MG cell line (brain)) greater than 50 µM, an IC50 (Homo sapiens, UMUC3, 72 h, UMUC3 cell line (bladder)) greater than 50 µM and an IC50 (Homo sapiens, UO-31, 72 h, UO31 cell line (kidney)) of 2.15 µM. For the same compound, the IC50 (Homo sapiens, WSU-NHL, WSU-NHL cell line (hematological)) was 3.41 µM, the IC50 (MT-3, 72 h, MT3 cell line (breast)) was 2.87 µM and the IC50 (NCI-H358M, NCIH358M cell line (lung)) was 2.68 µM. It also gave an IC50 (PBMC, PBMC (hematological)) greater than 50 µM and an IC50 (RD-ES, RDES cell line (bone)) of 3.07 µM.
